# Data: patent US10093678B2, “Azaspiro derivatives as TRPM8 antagonists” (RaQualia Pharma Inc., priority 2014, dated 2018)
# pIC50: −log10 of the molar value.
# Target: T1, human TRPM8 (Homo sapiens, UniProt Q7Z2W7)
# T1 construct: expressed in transfected cells; host or cells: HEK293
# Assay: Menthol-induced Ca2+ influx in HEK293 cells stably expressing human TRPM8
# Type: cell-based
# Conditions: 30 microM menthol-induced Ca2+ influx, read-out: IC50 against TRPM8
# Method in brief: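 IC50 values were fitted from 11-point dose-response data averaged over duplicate wells. Compound was added for 5 min to Fluo4-loaded HEK293 cells carrying stable human TRPM8, in HBSS/HEPES pH 7.4 with probenecid. Intracellular Ca2+ change after 30 microM menthol addition was then imaged on FDSS.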
# T1 sequence (Q7Z2W7 whole entry): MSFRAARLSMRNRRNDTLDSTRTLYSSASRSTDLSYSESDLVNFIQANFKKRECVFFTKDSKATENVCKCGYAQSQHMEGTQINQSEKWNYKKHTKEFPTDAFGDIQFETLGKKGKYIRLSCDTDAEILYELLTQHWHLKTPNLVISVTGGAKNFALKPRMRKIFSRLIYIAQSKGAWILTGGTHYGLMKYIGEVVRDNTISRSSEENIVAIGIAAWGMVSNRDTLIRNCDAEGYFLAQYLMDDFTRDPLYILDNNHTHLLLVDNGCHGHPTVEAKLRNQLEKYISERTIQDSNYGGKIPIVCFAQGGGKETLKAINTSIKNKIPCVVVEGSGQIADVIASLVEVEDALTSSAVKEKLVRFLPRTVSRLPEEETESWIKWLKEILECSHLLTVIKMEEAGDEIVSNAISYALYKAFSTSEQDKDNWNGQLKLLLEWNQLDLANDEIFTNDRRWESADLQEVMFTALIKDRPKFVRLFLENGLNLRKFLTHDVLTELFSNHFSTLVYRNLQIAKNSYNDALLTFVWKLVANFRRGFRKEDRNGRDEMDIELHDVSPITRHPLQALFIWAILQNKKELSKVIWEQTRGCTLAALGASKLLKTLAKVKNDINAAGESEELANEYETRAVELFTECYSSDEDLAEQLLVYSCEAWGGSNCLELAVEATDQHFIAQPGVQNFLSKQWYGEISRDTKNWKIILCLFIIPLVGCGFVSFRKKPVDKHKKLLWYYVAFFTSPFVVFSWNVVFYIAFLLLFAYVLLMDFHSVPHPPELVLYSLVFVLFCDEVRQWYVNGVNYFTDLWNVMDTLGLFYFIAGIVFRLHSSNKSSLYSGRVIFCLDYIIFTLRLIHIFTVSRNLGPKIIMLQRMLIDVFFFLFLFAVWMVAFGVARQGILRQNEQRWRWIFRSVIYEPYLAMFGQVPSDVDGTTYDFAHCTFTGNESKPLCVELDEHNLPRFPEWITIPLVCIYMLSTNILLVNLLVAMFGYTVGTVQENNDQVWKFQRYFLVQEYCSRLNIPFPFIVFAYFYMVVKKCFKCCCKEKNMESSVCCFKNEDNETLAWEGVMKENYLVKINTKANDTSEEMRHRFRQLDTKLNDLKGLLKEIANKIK
row,SMILES,pIC50
1,Cc1ccsc1-c1ccc(C(=O)CN2C(=O)NC3(CCC(F)(F)CC3)C2=O)cc1 [Example 6-29],> 7.00
2,O=C(CN1C(=O)NC2(CCC(F)(F)CC2)C1=O)c1ccc(-c2cccc3nccn23)cc1 [Example 6-21],> 7.00
3,O=C(CN1C(=O)NC2(CCC(F)(F)CC2)C1=O)c1ccc(-c2ncnc3ccccc23)cc1 [Example 6-2],> 8.00
4,COc1cc(C(=O)CN2C(=O)NC3(CCC(F)(F)CC3)C2=O)ccc1-c1cccc(F)c1 [Example 5-4],> 6.30
5,O=C(CN1C(=O)NC2(CCC(F)(F)CC2)C1=O)c1ccc(-c2cccnc2NCCO)cc1 [Example 6-46],> 6.30
6,O=C(CN1C(=O)NC2(CCC(F)(F)CC2)C1=O)c1ccc(-c2cccc3c2C(O)CC3)cc1 (stereo not shown) [Example 6-50],> 6.30
7,O=C(CN1C(=O)NC2(CCC(F)(F)CC2)C1=O)c1ccc(-c2cccc3ncncc23)cc1 [Example 6-45],> 7.00
8,Cc1nc2ccccc2n1-c1ccc(C(=O)CN2C(=O)NC3(CCCCCC3)C2=O)cc1 [Example 5-13],> 7.00
9,O=C(CN1C(=O)NC2(CCCCC2)C1=O)c1ccc(Oc2cccnn2)cc1 [Example 5-40],> 6.30
10,Cc1nc2ccccc2n1-c1ccc(C(=O)CN2C(=O)NC3(CCC(F)(F)CC3)C2=O)cc1 [Example 5-8],> 7.00
11,O=C(CN1C(=O)NC2(CCC(F)(F)CC2)C1=O)c1ccc(-c2cccc3nccnc23)cc1 [Example 6-30],> 7.00
12,Cc1cc(C(=O)CN2C(=O)NC3(CCC(F)(F)CC3)C2=O)c(C)n1-c1nnn(C)n1 [Example 3-21],> 6.30
13,O=C(CN1C(=O)NC2(CCC(F)(F)CC2)C1=O)c1ccc(-c2cnc3cccnn23)cc1 [Example 6-116],> 7.00
14,Cc1c(C(=O)CN2C(=O)NC3(CCCCC3)C2=O)nn(C)c1-c1ccccc1 [Example 4-2],> 7.00
15,O=C(CN1C(=O)NC2(CCCCC2)C1=O)c1ccc(-c2cnccc2CO)cc1 [Example 7-9],> 7.00
16,O=C(CN1C(=O)NC2(CCC(F)(F)CC2)C1=O)c1ccc(-c2nccc3occc23)cc1 [Example 6-31],> 7.00
17,Cc1nc(-c2ccc(C(=O)CN3C(=O)NC4(CCC(F)(F)CC4)C3=O)cc2)c2ccccc2n1 [Example 6-33],> 7.00
18,Cc1ccnnc1-c1ccc(C(=O)CN2C(=O)NC3(CCCCC3)C2=O)cc1 [Example 7-23],> 6.30

row,SMILES,pIC50
1,"NCc1ncccc1-c1ccc(C(=O)CN2C(=O)NC3(CCC(F)(F)CC3)C2=O)cc1 [Example 6-56, 3-(2-(4-(2-(aminomethyl)pyridin-3-yl)phenyl)-2-oxoethyl)-8,8-difluoro-1,3-diazaspiro[4.5]decane-2,4-dione]",> 6.30
2,N#Cc1cccnc1-c1ccc(C(=O)CN2C(=O)NC3(CCC(F)(F)CC3)C2=O)cc1 [Example 6-87],> 7.00
3,O=C(CN1C(=O)NC2(CCC(F)(F)CC2)C1=O)c1ccc(-c2nccc3[nH]ncc23)cc1 [Example 6-20],> 7.00
4,"O=C(CN1C(=O)NC2(CCC(F)(F)CC2)C1=O)c1ccc(-c2nccnc2OCCO)cc1 [Example 6-54, 8,8-difluoro-3-(2-(4-(3-(2-hydroxyethoxy)pyrazin-2-yl)phenyl)-2-oxoethyl)-1,3-diazaspiro[4.5]decane-2,4-dione]",> 7.00
5,Cc1ccc(C)c(-c2ccc(C(=O)CN3C(=O)NC4(CCC(F)(F)CC4)C3=O)cc2)c1 [Example 6-78],> 6.30
6,Cc1nc(C(=O)CN2C(=O)OC3(CCC(F)(F)CC3)C2=O)c(C)n1-c1ccccc1 [Example 2-3],> 7.00
7,Cc1cc(-n2c(C)cc(C(=O)CN3C(=O)OC4(CCC(F)(F)CC4)C3=O)c2C)no1 [Example 1-2],> 7.00
8,O=C(CN1C(=O)NC2(CCC(F)(F)CC2)C1=O)c1ccc(-c2ccnc3[nH]ncc23)nc1 [Example 9-26],> 6.30
9,O=C(CN1C(=O)NC2(CCC(F)(F)CC2)C1=O)c1ccc(-c2nccc3ccncc23)cc1 [Example 6-44],> 7.00
10,O=C(CN1C(=O)NC2(CCC(F)(F)CC2)C1=O)c1ccc(-c2nccc3[nH]ccc23)cc1 [Example 6-24],> 7.00
11,COc1cc(C(=O)CN2C(=O)NC3(CCC(F)(F)CC3)C2=O)ccc1-c1cccnc1 [Example 5-3],> 7.00
12,O=C(CN1C(=O)NC2(CCC(F)(F)CC2)C1=O)c1ccc(-c2ccnc3[nH]ncc23)cc1 [Example 6-1],> 8.00
13,N#Cc1ncccc1-c1ccc(C(=O)CN2C(=O)NC3(CCCCC3)C2=O)cc1 [Example 7-8],> 7.00
14,Cc1nc2ccccc2n1-c1ccc(C(=O)CN2C(=O)NC3(CCC(F)(F)CC3)C2=O)cn1 [Example 5-14],> 8.00
15,Cc1ccncc1-c1ccc(C(=O)CN2C(=O)NC3(CCCCC3)C2=O)cn1 [Example 9-1],> 8.00
16,Cc1c(C(=O)CN2C(=O)NC3(CCC(F)(F)CC3)C2=O)nn(C)c1-c1ccccc1 [Example 4-1],> 7.00
17,Cc1nccnc1-c1ccc(C(=O)CN2C(=O)NC3(CCC(F)(F)CC3)C2=O)cc1 [Example 6-11],> 7.00
18,Cc1cccc(-n2c(C)nc(C(=O)CN3C(=O)NC4(CCCCC4)C3=O)c2C)c1 [Example 2-13],> 7.00

# Further lines, results first:
row,pIC50,SMILES
1,> 6.30,Cc1ccc2nc(CN3CCC3)n(-c3ccc(C(=O)CN4C(=O)NC5(CCC(F)(F)CC5)C4=O)cc3)c2n1 [Example 25-4]
2,> 7.00,Cc1sc(C(=O)CN2C(=O)NC3(CCC(F)(F)CC3)C2=O)c(C)c1-c1cncnc1 [Example 15-5]
3,> 7.00,Cc1cc(C(=O)CN2C(=O)NC3(CCCCC3)C2=O)ccc1-c1ccccc1 [Example 13-5]
4,> 7.00,N#Cc1cccc(Oc2ccc(C(=O)CN3C(=O)NC4(CCC(F)(F)CC4)C3=O)cn2)c1 [Example 20-7]
5,> 8.00,Cc1ncccc1-c1cnc(C(=O)CN2C(=O)NC3(CCC(F)(F)CC3)C2=O)cn1 [Example 12-1]
6,> 7.00,Cc1ccccc1-c1ccc(C(=O)CN2C(=O)NC3(CCCCC3)C2=O)cc1C [Example 13-6]
7,> 6.30,Cc1cccc(Oc2ccc(C(=O)CN3C(=O)NC4(CCC(F)(F)CC4)C3=O)cc2)n1 [Example 21-6]
8,> 6.30,O=C(CN1C(=O)NC2(CCC(F)(F)CC2)C1=O)c1ccc(Oc2cncnc2)cc1 [Example 21-15]
9,> 7.00,Cc1cc(C(=O)CN2C(=O)NC3(CCC(F)(F)CC3)C2=O)sc1-c1ccccc1Cl [Example 14-14]
10,> 6.30,Cc1ccccc1-c1c(C)sc(C(=O)CN2C(=O)NC3(CCC(F)(F)CC3)C2=O)c1C [Example 15-9]
11,> 7.00,Cn1c(C(=O)CN2C(=O)NC3(CCC(F)(F)CC3)C2=O)nc(C2CC2)c1-c1cccnc1 [Example 17-5]
12,> 7.00,Cc1c(C(=O)CN2C(=O)NC3(CCC(F)(F)CC3)C2=O)cn(C)c1-c1cncc(F)c1 [Example 16-23]
13,> 7.00,O=C(CN1C(=O)NC2(CCC(F)(F)CC2)C1=O)c1ccc(-n2ccc3ccccc32)cc1 [Example 19-18]
14,> 7.00,Cc1ccncc1-c1sc(C(=O)CN2C(=O)NC3(CCCCC3)C2=O)cc1C [Example 14-3]
15,> 6.30,"Cc1ccnnc1Oc1ccc(C(=O)CN2C(=O)NC3(CCC(F)(F)CC3)C2=O)cc1 [Example 21-11, 8,8-difluoro-3-(2-(4-((4-methylpyridazin-3-yl)oxy)phenyl)-2-oxoethyl)-1,3-diazaspiro[4.5]decane-2,4-dione]"
16,> 6.30,Cc1ccc2nc(CN3CCCCC3)n(-c3ccc(C(=O)CN4C(=O)NC5(CCC(F)(F)CC5)C4=O)cc3)c2n1 [Example 25-3]

row,pIC50,SMILES
1,> 7.00,O=C(CN1C(=O)NC2(CCC(F)(F)CC2)C1=O)c1cnc(-c2ccccc2CO)cn1 [Example 12-3]
2,> 7.00,Cc1cc(C(=O)CN2C(=O)NC3(CCC(F)(F)CC3)C2=O)sc1-c1ccccc1C#N [Example 14-8]
3,> 8.00,O=C(CN1C(=O)NC2(CCC(F)(F)CC2)C1=O)c1ccc(-c2ccccc2CO)cc1 [Example 13-34]
4,> 7.00,Cc1cc(C(=O)CN2C(=O)NC3(CCC(F)(F)CC3)C2=O)sc1-c1cnccc1C(F)(F)F [Example 14-15]
5,> 7.00,Cc1cc(C(=O)CN2C(=O)NC3(CCC(F)(F)CC3)C2=O)ccc1-c1cccc2c1CNC2=O [Example 13-10]
6,> 7.00,"Cc1ccc2nc(CO)n(-c3ccc(C(=O)CN4C(=O)NC5(CCC(F)(F)CC5)C4=O)cc3)c2n1 [Example 28-5, 8,8-difluoro-3-(2-(4-(2-(hydroxymethyl)-5-methyl-3H-imidazo[4,5-b]pyridin-3-yl)phenyl)-2-oxoethyl)-1,3-diazaspiro[4,5]decane-2,4-dione]"
7,> 7.00,O=C(CN1C(=O)NC2(CCC(F)(F)CC2)C1=O)c1cnc(-c2cccc3cccnc23)cn1 [Example 12-6]
8,> 7.00,COc1ncccc1-c1cnc(C(=O)CN2C(=O)NC3(CCC(F)(F)CC3)C2=O)cn1 [Example 12-4]
9,> 7.00,COc1ccccc1-c1ccc(C(=O)CN2C(=O)NC3(CCCCC3)C2=O)cc1 [Example 13-3]
10,> 6.30,Cc1ccccc1-c1ccc(C(=O)CN2C(=O)NC3(CCC(F)(F)CC3)C2=O)n1C [Example 16-32]
11,> 7.00,"O=C(CN1C(=O)NC2(CCC(F)(F)CC2)C1=O)c1ccc(Oc2ncccc2Cl)cc1 [Example 21-2, 3-(2-(4-((3-chloropyridin-2-yl)oxy)phenyl)-2-oxoethyl)-8,8-difluoro-1,3-diazaspiro[4.5]decane-2,4-dione]"
12,> 6.30,Cc1cccc(-c2c(C)sc(C(=O)CN3C(=O)NC4(CCC(F)(F)CC4)C3=O)c2C)c1 [Example 15-11]
13,> 7.00,Cn1c(=O)n(-c2ccc(C(=O)CN3C(=O)NC4(CCC(F)(F)CC4)C3=O)cc2)c2ccccc21 [Example 19-23]
14,> 8.00,"Cc1ccc2nc(C(F)(F)F)n(-c3ccc(C(=O)CN4C(=O)NC5(CCC(F)(F)CC5)C4=O)cc3)c2n1 [Example 24-7, 8,8-difluoro-3-(2-(4-(5-methyl-2-(trifluoromethyl)-3H-imidazo[4,5-b]pyridin-3-yl)phenyl)-2-oxoethyl)-1,3-diazaspiro[4.5]decane-2,4-dione]"
15,> 8.00,Cc1ccc2nc(C(F)F)n(-c3ccc(C(=O)CN4C(=O)NC5(CCC(F)(F)CC5)C4=O)cc3)c2n1 [Example 24-5]
